Common to all, as to format: functional
One test has as its system Bacillus cereus. Nature of the test: Antibacterial activity against Bacillus cereus ATCC 7064 after 18 hrs by broth microdilution assay. To be noted: ATCC 7064, 18 h.
In the next test the test system is Micrococcus luteus. The test is described as follows: Antibacterial activity against Micrococcus luteus ATCC 9345 after 18 hrs by broth microdilution assay. To be noted: ATCC 9345, 18 h.
Test [1] deals with Staphylococcus aureus. Nature of the test: Antibacterial activity against Staphylococcus aureus ATCC 25923 after 18 hrs by broth microdilution assay. To be noted: ATCC 25923, 18 h. (Dilution methods test growth across graded concentrations, often in twofold steps.)
Test [2] deals with Staphylococcus aureus. The test is described as follows: Antibacterial activity against Staphylococcus aureus ATCC 6538 after 18 hrs by broth microdilution assay. To be noted: ATCC 6538, 18 h.
The next test has as its system Candida parapsilosis. The test is described as follows: Antifungal activity against Candida parapsilosis ATCC 22019 after 18 hrs by broth microdilution assay. To be noted: Lodderomyces parapsilosis, ATCC 22019, 18 h.
In another test the test system is Candida albicans. Nature of the test: Antifungal activity against Candida albicans ATCC 14053 after 18 hrs by broth microdilution assay. To be noted: ATCC 14053, 18 h.
For the next test, the system named is Pichia kudriavzevii. The test is described as follows: Antifungal activity against Candida krusei ATCC 6258 after 18 hrs by broth microdilution assay. To be noted: ATCC 6258, 18 h.
A further test has as its system Escherichia coli. The test is described as follows: Antibacterial activity against Escherichia coli ATCC 4230 after 18 hrs by broth microdilution assay. To be noted: ATCC 4230, 18 h.

Values after ≈ are worked out from the molar mass of the structure shown.

Experimental findings from ChEMBL document CHEMBL1157874, “Synthesis, spectroscopic and biological studies on the new symmetric Schiff base derived from 2,6-diformyl-4-methylphenol with N-aminopyrimidine” (2010) are described below.

What is called MIC is the lowest concentration that inhibits growth of the organism. Read a high MIC as a less susceptible organism.

In the case of `CC1(C)S[C@@H]2[C@H](NC(=O)[C@H](N)c3ccccc3)C(=O)N2[C@H]1C(=O)O` [AMPICILLIN], the MIC was 5 µg/mL (≈ 14.3 µM) with Bacillus cereus and 10 µg/mL (≈ 28.6 µM) with Micrococcus luteus.

Consider `Cc1cc(/C=N/n2cc(C(=O)c3ccccc3)c(-c3ccccc3)nc2=O)c(O)c(/C=N/n2cc(C(=O)c3ccccc3)c(-c3ccccc3)nc2=O)c1`, for which the MIC turned out to be 20 µg/mL (≈ 28.1 µM) in the test on Staphylococcus aureus [1]; 20 µg/mL (≈ 28.1 µM) in the test on Staphylococcus aureus [2]; 40 µg/mL (≈ 56.3 µM) against Candida parapsilosis; 40 µg/mL (≈ 56.3 µM) against Candida albicans; 40 µg/mL (≈ 56.3 µM) in the test with Pichia kudriavzevii; 80 µg/mL (≈ 113 µM) in the test with Bacillus cereus. Also, the results for the minimum inhibitory concentration (MIC) with Micrococcus luteus and against Escherichia coli were 20 µg/mL (≈ 28.1 µM) and 40 µg/mL (≈ 56.3 µM), respectively.

The compound `OC(Cn1cncn1)(Cn1cncn1)c1ccc(F)cc1F` [FLUCONAZOLE] had an MIC in the test with Pichia kudriavzevii of 10 µg/mL (≈ 32.7 µM).
